Reference: ChEMBL document CHEMBL4138149, “Discovery of 1-(3-aryl-4-chlorophenyl)-3-(p-aryl)urea derivatives against breast cancer by inhibiting PI3K/Akt/mTOR and Hedgehog signalings” (Eur J Med Chem, 2017)
Active and inactive are the calls of the source. The rule behind the calls is not given here.

Columns and labels:
T47D [1] = assay: Cytotoxicity against human T47D cells after 72 hrs by MTT assay; type: functional, cell-based
MCF7 = assay: Cytotoxicity against human MCF7 cells after 72 hrs by MTT assay; type: functional, cell-based; conditions: MCF7, 72 h
[2] = molecular target: Serine/threonine-protein kinase mTOR (Homo sapiens, UniProt P42345); assay: Inhibition of mTOR (unknown origin) using Ulight-4EBP1 peptide as substrate measured after 1 hr by Lance Ultra assay
MDA-MB-231 [3] = assay: cells; conditions: Homo sapiens, MDA-MB-231, 72 h
Description: Cytotoxicity against human MDA-MB-231 cells after 72 hrs by MTT assay

PC-3 = assay: Cytotoxicity against human PC3 cells after 72 hrs by MTT assay; type: functional, cell-based; conditions: PC-3, 72 h
[4] = molecular target: Phosphatidylinositol 4,5-bisphosphate 3-kinase catalytic subunit alpha isoform (Homo sapiens) (UniProt P42336); assay: Inhibition of PI3Kalpha (unknown origin) at 5 uM using PIP2 as substrate measured after 1 hr by Kinase-Glo luminescent assay relative to control
Phosphatidylinositol 4,5-bisphosphate 3-kinase catalytic subunit alpha isoform (Homo sapiens), sequence (P42336 whole entry, canonical isoform): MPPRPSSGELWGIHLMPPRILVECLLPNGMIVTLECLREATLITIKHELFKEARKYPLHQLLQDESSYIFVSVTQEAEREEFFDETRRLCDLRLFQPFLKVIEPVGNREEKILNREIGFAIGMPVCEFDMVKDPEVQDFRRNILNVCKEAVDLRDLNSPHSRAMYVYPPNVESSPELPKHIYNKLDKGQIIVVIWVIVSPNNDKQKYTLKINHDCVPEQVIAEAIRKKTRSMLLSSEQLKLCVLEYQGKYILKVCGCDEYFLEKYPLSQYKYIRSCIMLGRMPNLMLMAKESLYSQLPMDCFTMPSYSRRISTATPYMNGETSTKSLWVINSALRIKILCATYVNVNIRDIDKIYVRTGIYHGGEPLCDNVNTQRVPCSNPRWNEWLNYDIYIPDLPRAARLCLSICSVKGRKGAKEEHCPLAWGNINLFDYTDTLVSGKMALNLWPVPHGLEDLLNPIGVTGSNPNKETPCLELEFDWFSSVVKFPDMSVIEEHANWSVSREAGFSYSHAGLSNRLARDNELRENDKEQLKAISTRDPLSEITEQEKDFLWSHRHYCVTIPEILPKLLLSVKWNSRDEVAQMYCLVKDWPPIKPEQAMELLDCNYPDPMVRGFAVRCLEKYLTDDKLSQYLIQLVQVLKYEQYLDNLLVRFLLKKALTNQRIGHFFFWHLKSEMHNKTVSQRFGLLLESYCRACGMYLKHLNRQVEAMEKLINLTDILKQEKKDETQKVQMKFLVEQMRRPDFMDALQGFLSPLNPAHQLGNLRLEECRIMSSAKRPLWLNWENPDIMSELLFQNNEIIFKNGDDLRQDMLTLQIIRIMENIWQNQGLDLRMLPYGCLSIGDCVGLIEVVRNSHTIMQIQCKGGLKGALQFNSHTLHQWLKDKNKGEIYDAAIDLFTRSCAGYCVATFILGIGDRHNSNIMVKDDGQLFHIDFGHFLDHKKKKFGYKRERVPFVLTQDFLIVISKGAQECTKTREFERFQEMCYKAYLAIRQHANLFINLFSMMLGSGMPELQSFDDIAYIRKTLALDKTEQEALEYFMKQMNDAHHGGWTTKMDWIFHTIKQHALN

MDA-MB-231 [5] = assay: Induction of apoptosis in human MDA-MB-231 cells assessed as early apoptotic cells at 10 uM after 48 hrs by Annexin-V-FITC/propidium iodide staining based flow cytometric method (reference value: 0.634%); type: functional
MDA-MB-231 [6] = assay: Inhibition of PI3K/Akt/mTOR signaling in human MDA-MB-231 cells assessed as reduction in phosphorylation of S6K at Thr412 residue at 5 uM measured within 4 hrs by Western blot analysis; type: cell-based
MDA-MB-231 [7] = assay: Inhibition of PI3K/Akt/mTOR signaling in human MDA-MB-231 cells assessed as reduction in AKT phosphorylation at Ser473 residue at 5 uM by Western blot analysis; type: cell-based; conditions: TDE = time-dependent effect
MDA-MB-231 [8] = assay: Induction of apoptosis in human MDA-MB-231 cells assessed as necrotic cells at 10 uM after 48 hrs by Annexin-V-FITC/propidium iodide staining based flow cytometric method (reference value: 0.086%); type: functional
T47D [9] = assay: Induction of apoptosis in human T47D cells assessed as necrotic cells at 10 uM after 48 hrs by Annexin-V-FITC/propidium iodide staining based flow cytometric method (reference value: 0.135%); type: functional
T47D [10] = assay: Induction of apoptosis in human T47D cells assessed as live cells at 5 uM after 48 hrs by Annexin-V-FITC/propidium iodide staining based flow cytometric method (reference value: 86.2%); type: functional
MDA-MB-231 [11] = assay: Inhibition of PI3K/Akt/mTOR signaling in human MDA-MB-231 cells assessed as reduction in phosphorylation of S6K at Thr389 residue at 5 uM measured within 4 hrs by Western blot analysis; type: cell-based
T47D [12] = assay: Induction of apoptosis in human T47D cells assessed as early apoptotic cells at 5 uM after 48 hrs by Annexin-V-FITC/propidium iodide staining based flow cytometric method (reference value: 4.49%); type: functional
MDA-MB-231 [13] = assay: Induction of apoptosis in human MDA-MB-231 cells assessed as late apoptotic cells at 10 uM after 48 hrs by Annexin-V-FITC/propidium iodide staining based flow cytometric method (reference value: 5%); type: functional
T47D [14] = assay: Induction of apoptosis in human T47D cells assessed as late apoptotic cells at 10 uM after 48 hrs by Annexin-V-FITC/propidium iodide staining based flow cytometric method (reference value: 9.18%); type: functional
MDA-MB-231 [15] = assay: Antimigratory activity against human MDA-MB-231 cells at 5 to 10 uM after 24 hrs by tryphan blue staining based transwell assay; type: functional, cell-based
T47D [16] = assay: Induction of apoptosis in human T47D cells assessed as late apoptotic cells at 5 uM after 48 hrs by Annexin-V-FITC/propidium iodide staining based flow cytometric method (reference value: 9.18%); type: functional
MDA-MB-231 [17] = assay: Induction of apoptosis in human MDA-MB-231 cells assessed as live cells at 10 uM after 48 hrs by Annexin-V-FITC/propidium iodide staining based flow cytometric method (reference value: 94.3%); type: functional
MDA-MB-231 [18] = assay: Induction of apoptosis in human MDA-MB-231 cells assessed as live cells at 5 uM after 48 hrs by Annexin-V-FITC/propidium iodide staining based flow cytometric method (reference value: 94.3%); type: functional
MDA-MB-231 [19] = assay: Inhibition of Hedgehog signaling in human MDA-MB-231 cells assessed as reduction in SAG-induced elevation of Gli1 expression at 5 to 10 uM after 48 hrs by Western blot analysis; type: cell-based
MDA-MB-231 [20] = assay: Induction of apoptosis in human MDA-MB-231 cells assessed as necrotic cells at 5 uM after 48 hrs by Annexin-V-FITC/propidium iodide staining based flow cytometric method (reference value: 0.086%); type: functional
T47D [21] = assay: Induction of apoptosis in human T47D cells assessed as necrotic cells at 5 uM after 48 hrs by Annexin-V-FITC/propidium iodide staining based flow cytometric method (reference value: 0.135%); type: functional
T47D [22] = assay: Induction of apoptosis in human T47D cells assessed as live cells at 10 uM after 48 hrs by Annexin-V-FITC/propidium iodide staining based flow cytometric method (reference value: 86.2%); type: functional
MDA-MB-231 [23] = assay: Induction of apoptosis in human MDA-MB-231 cells assessed as late apoptotic cells at 5 uM after 48 hrs by Annexin-V-FITC/propidium iodide staining based flow cytometric method (reference value: 5%); type: functional
MDA-MB-231 [24] = assay: Induction of apoptosis in human MDA-MB-231 cells assessed as early apoptotic cells at 5 uM after 48 hrs by Annexin-V-FITC/propidium iodide staining based flow cytometric method (reference value: 0.634%); type: functional
T47D [25] = assay: Induction of apoptosis in human T47D cells assessed as early apoptotic cells at 10 uM after 48 hrs by Annexin-V-FITC/propidium iodide staining based flow cytometric method (reference value: 4.49%); type: functional
[26] = molecular target: Phosphatidylinositol 4,5-bisphosphate 3-kinase catalytic subunit alpha isoform (Homo sapiens) (UniProt P42336); assay: Inhibition of PI3Kalpha (unknown origin) at 50 uM using PIP2 as substrate measured after 1 hr by Kinase-Glo luminescent assay relative to control

Structure (SMILES): O=C(Nc1ccc(-c2ccnc(N3CCOCC3)n2)cc1)Nc1ccc(Cl)c(-c2ccccn2)c1
- IC50 (T47D [1]): 23.1 µM

Structure (SMILES): O=C(Nc1ccc(-c2cc(N3CCOCC3)nc(N3CCOCC3)n2)cc1)Nc1ccc(Cl)c(-c2ccccn2)c1
- IC50 (T47D [1]): 35.1 µM

Structure (SMILES): O=C(Nc1ccc(-c2cc(N3CCOCC3)nc(N3CCOCC3)n2)cc1)Nc1ccc(Cl)c(-c2ccncc2)c1
- IC50 (MCF7): 8.2 µM
- IC50 [2]: 0.26 µM
- IC50 (MDA-MB-231 [3]): 7.32 µM
- IC50 (T47D [1]): 7.41 µM
- IC50 (PC-3): 9.28 µM
- inhibition [4]: 9.37%

Structure (SMILES): O=C(Nc1ccc(-c2ccnc(N3CCOCC3)n2)cc1)Nc1ccc(Cl)c(-c2cccs2)c1
- IC50 (T47D [1]): 24.3 µM

Structure (SMILES): CS(=O)(=O)c1ccc(C(=O)Nc2ccc(-c3ccnc(N4CCOCC4)n3)cc2)c(Cl)c1
- IC50 (T47D [1]): 25 µM

Structure (SMILES): CS(=O)(=O)c1ccc(C(=O)Nc2ccc(Cl)c(-c3ccccn3)c2)c(Cl)c1 [VISMODEGIB]
- IC50 (MCF7): > 50 µM
- IC50 (MDA-MB-231 [3]): > 50 µM
- IC50 (T47D [1]): 41.3 µM
- IC50 (PC-3): > 50 µM

Structure (SMILES): O=C(Nc1ccc(-c2cc(N3CCOCC3)nc(N3CCOCC3)n2)cc1)Nc1ccc(Cl)c(-c2ccccc2)c1
- IC50 (T47D [1]): 15.6 µM

Structure (SMILES): O=C(Nc1ccc(-c2ccnc(N3CCOCC3)n2)cc1)Nc1ccc(Cl)c(-c2ccsc2)c1
- IC50 (T47D [1]): 22.6 µM

Structure (SMILES): O=C(Nc1ccc(-c2nc(N3CCOCC3)nc(N3CCOCC3)n2)cc1)Nc1ccc(Cl)c(-c2ccncc2)c1
- Activity (MDA-MB-231 [5]): 42.5%
- inhibition (MDA-MB-231 [6]): Active
- inhibition (MDA-MB-231 [7]): Tde
- IC50 (MCF7): 7.61 µM
- Activity (MDA-MB-231 [8]): 0.595%
- Activity (T47D [9]): 0.347%
- Activity (T47D [10]): 80.8%
- inhibition (MDA-MB-231 [11]): Active
- Activity (T47D [12]): 8.49%
- Activity (MDA-MB-231 [13]): 49.9%
- IC50 [2]: 0.18 µM
- IC50 (MDA-MB-231 [3]): 3.61 µM
- Activity (T47D [14]): 10.6%
- IC50 (T47D [1]): 7.94 µM
- Activity (MDA-MB-231 [15]): Active
- Activity (T47D [16]): 10.5%
- Activity (MDA-MB-231 [17]): 7.01%
- Activity (MDA-MB-231 [18]): 51.6%
- inhibition (MDA-MB-231 [19]): Active
- Activity (MDA-MB-231 [20]): 1.17%
- Activity (T47D [21]): 0.132%
- IC50 (PC-3): 11 µM
- Activity (T47D [22]): 13.9%
- inhibition [4]: 16.3%
- Activity (MDA-MB-231 [23]): 28.6%
- Activity (MDA-MB-231 [24]): 18.7%
- Activity (T47D [25]): 75.1%

Structure (SMILES): O=C(Nc1ccc(-c2nc(N3CCOCC3)nc(N3CCOCC3)n2)cc1)Nc1ccc(Cl)c(-c2cccnc2)c1
- IC50 (MCF7): 5.75 µM
- IC50 [2]: 0.2 µM
- IC50 (MDA-MB-231 [3]): 7.82 µM
- IC50 (T47D [1]): 9.38 µM
- IC50 (PC-3): 5.37 µM
- inhibition [4]: 26.6%

Structure (SMILES): O=C(Nc1ccc(-c2nc(N3CCOCC3)nc(N3CCOCC3)n2)cc1)Nc1ccc(Cl)c(-c2ccccn2)c1
- IC50 [2]: 0.09 µM
- IC50 (T47D [1]): 14.2 µM
- inhibition [4]: 6.8%

Structure (SMILES): O=C(Nc1ccc(-c2ccnc(N3CCOCC3)n2)cc1)Nc1ccc(Cl)c(-c2ccccc2)c1
- IC50 (T47D [1]): 44.6 µM

Structure (SMILES): O=C(Nc1ccc(-c2cc(N3CCOCC3)nc(N3CCOCC3)n2)cc1)Nc1ccc(Cl)c(-c2cccs2)c1
- IC50 (T47D [1]): 25.4 µM

Structure (SMILES): O=C(Nc1ccc(-c2nc(N3CCOCC3)nc(N3CCOCC3)n2)cc1)Nc1ccc(Cl)c(-c2ccsc2)c1
- IC50 (T47D [1]): 23.2 µM

Structure (SMILES): Nc1cc(C(F)(F)F)c(-c2cc(N3CCOCC3)nc(N3CCOCC3)n2)cn1 [BUPARLISIB]
- IC50 (MCF7): 11.1 µM
- IC50 (MDA-MB-231 [3]): 1.88 µM
- IC50 (T47D [1]): 6.92 µM
- IC50 (PC-3): 5.34 µM

Structure (SMILES): O=C(Nc1ccc(-c2nc(N3CCOCC3)nc(N3CCOCC3)n2)cc1)Nc1ccc(Cl)c(-c2cccs2)c1
- IC50 (T47D [1]): 44.1 µM

Structure (SMILES): O=C(Nc1ccc(-c2ccnc(N3CCOCC3)n2)cc1)Nc1ccc(Cl)c(-c2ccncc2)c1
- IC50 (MCF7): 19.2 µM
- IC50 (MDA-MB-231 [3]): 18.9 µM
- IC50 (T47D [1]): 16 µM
- IC50 (PC-3): 17.7 µM

Structure (SMILES): CS(=O)(=O)c1ccc(C(=O)Nc2ccc(-c3cc(N4CCOCC4)nc(N4CCOCC4)n3)cc2)c(Cl)c1
- IC50 (T47D [1]): 22.3 µM

Structure (SMILES): O=C(Nc1ccc(-c2ccnc(N3CCOCC3)n2)cc1)Nc1ccc(Cl)c(-c2cccnc2)c1
- inhibition [26]: 30%
- IC50 (MCF7): 16.8 µM
- IC50 [2]: > 10 µM
- IC50 (MDA-MB-231 [3]): 14.5 µM
- IC50 (T47D [1]): 4.11 µM
- IC50 (PC-3): 11.8 µM

Structure (SMILES): O=C(Nc1ccc(-c2cc(N3CCOCC3)nc(N3CCOCC3)n2)cc1)Nc1ccc(Cl)c(-c2ccsc2)c1
- IC50 (T47D [1]): 18.7 µM

Structure (SMILES): O=C(Nc1ccc(-c2cc(N3CCOCC3)nc(N3CCOCC3)n2)cc1)Nc1ccc(Cl)c(-c2cccnc2)c1
- IC50 (MCF7): 9.15 µM
- IC50 [2]: 0.33 µM
- IC50 (MDA-MB-231 [3]): 8.49 µM
- IC50 (T47D [1]): 3.96 µM
- IC50 (PC-3): 15.5 µM
- inhibition [4]: 35.1%

Structure (SMILES): O=C(Nc1ccc(-c2nc(N3CCOCC3)nc(N3CCOCC3)n2)cc1)Nc1ccc(Cl)c(-c2ccccc2)c1
- IC50 [2]: 3.45 µM
- IC50 (T47D [1]): 15.4 µM
- inhibition [4]: 57.1%

Structure (SMILES): CS(=O)(=O)c1ccc(C(=O)Nc2ccc(-c3nc(N4CCOCC4)nc(N4CCOCC4)n3)cc2)c(Cl)c1
- IC50 (T47D [1]): 17.5 µM
